Test results reported in BindingDB's records for doi:10.1021/jm060742o (Rheinische Friedrich-Wilhelms-Universitat Bonn, 2006).
pIC50, pKi: −log10 of the molar value.

Assays:
Experiment in all cases: Cholinesterase Inhibition Assay
[1] = target: Acetylcholinesterase (Electrophorus electricus, UniProt O42275)
Experimental: (§1) The cholinesterase assays were performed using colorimetric method reported by Ellman. The absorbance changed at 412 nm and was monitored with spectrophotometer. The reaction rates were compared and the percent inhibition due to the presence of test compounds was calculated. Inhibition curve was obtained for each compound. The compound concentration producing 50% of enzyme inhibition (IC50) was determined.

[2] = target: Acetylcholinesterase (Tetronarce californica, UniProt P04058)
Chain of Acetylcholinesterase (Tetronarce californica, UniProt P04058) (P04058 whole entry): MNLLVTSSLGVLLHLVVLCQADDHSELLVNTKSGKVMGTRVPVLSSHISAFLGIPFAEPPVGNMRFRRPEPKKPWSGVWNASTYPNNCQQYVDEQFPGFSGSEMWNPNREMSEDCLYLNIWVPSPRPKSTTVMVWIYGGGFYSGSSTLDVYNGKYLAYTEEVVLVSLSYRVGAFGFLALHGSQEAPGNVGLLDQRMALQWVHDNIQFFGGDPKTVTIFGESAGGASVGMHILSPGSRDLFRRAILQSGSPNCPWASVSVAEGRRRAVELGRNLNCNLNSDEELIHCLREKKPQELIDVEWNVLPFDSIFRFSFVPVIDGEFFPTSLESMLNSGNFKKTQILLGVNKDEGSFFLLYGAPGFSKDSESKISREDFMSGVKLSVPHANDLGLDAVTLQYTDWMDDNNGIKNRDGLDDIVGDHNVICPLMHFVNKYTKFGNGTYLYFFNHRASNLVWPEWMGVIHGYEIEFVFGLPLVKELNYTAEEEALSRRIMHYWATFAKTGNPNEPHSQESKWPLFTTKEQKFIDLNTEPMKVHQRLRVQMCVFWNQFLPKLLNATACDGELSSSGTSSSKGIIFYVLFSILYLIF
Experimental: as §1

[3] = target: Acetylcholinesterase (Homo sapiens, UniProt P22303); conditions: pH 7.3; 25 °C
Chain of Acetylcholinesterase (Homo sapiens, UniProt P22303) (P22303 whole entry): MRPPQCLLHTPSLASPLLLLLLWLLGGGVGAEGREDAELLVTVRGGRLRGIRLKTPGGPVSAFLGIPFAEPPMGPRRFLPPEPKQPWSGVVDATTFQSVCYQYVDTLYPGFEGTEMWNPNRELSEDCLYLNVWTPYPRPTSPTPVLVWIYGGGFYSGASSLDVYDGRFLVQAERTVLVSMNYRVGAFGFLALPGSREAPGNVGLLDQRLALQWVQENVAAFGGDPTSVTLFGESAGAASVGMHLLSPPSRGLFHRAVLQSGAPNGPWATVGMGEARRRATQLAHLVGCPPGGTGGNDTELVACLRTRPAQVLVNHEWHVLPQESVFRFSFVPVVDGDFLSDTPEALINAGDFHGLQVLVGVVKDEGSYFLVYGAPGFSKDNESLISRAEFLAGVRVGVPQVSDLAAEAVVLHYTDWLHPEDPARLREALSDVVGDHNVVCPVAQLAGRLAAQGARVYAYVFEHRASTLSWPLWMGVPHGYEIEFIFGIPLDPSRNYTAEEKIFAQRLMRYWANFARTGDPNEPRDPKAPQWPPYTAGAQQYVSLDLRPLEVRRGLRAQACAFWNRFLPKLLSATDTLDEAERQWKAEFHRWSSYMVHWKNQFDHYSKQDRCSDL
Experimental: as §1

[4] = target: Cholinesterase (Homo sapiens, UniProt P06276)
Chain of Cholinesterase (P06276 whole entry): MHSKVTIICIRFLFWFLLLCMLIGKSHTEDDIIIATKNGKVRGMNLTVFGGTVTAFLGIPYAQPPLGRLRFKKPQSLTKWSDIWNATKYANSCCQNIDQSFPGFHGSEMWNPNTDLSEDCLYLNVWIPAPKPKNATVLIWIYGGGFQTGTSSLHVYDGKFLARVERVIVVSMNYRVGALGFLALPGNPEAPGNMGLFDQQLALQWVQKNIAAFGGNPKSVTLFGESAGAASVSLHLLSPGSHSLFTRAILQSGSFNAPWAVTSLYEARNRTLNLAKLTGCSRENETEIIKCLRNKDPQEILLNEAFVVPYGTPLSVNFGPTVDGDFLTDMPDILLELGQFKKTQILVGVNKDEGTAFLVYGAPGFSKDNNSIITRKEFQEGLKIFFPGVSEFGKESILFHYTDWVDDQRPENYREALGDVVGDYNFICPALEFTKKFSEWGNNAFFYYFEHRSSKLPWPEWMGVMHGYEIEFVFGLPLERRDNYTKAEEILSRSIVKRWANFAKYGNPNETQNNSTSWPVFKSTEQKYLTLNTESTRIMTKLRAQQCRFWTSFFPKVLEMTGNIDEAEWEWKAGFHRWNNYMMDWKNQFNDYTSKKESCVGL
Experimental: as §1

Chain of Acetylcholinesterase (Electrophorus electricus, UniProt O42275) (O42275 whole entry): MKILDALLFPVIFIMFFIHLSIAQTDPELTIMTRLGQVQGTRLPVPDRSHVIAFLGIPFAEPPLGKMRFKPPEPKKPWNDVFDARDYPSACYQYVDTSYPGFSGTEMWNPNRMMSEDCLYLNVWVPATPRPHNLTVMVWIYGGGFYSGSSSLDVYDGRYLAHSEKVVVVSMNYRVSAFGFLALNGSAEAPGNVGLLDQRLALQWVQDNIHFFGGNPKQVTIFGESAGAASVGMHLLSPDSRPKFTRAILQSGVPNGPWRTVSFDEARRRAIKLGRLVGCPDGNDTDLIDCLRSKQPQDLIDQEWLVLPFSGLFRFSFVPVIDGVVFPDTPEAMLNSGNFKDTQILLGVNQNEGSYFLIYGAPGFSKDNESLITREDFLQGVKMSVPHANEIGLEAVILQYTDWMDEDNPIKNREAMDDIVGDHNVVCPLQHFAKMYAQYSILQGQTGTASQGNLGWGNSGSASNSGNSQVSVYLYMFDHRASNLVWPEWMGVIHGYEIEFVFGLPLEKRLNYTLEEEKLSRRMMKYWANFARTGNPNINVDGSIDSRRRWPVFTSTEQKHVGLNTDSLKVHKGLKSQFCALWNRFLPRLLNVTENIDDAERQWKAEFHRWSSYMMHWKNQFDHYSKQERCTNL

Row | Compound | pKi [1] | pIC50 [2] | pIC50 [3] | pIC50 [4] | pIC50 [1]
1 | COc1cc(C(=O)NCCCCCCCC(=O)NNc2c3c(nc4ccccc24)CCCC3)cc(OC)c1OC [3,4,5-trimethoxy-N-[7-(N'-1,2,3,4-tetrahydroacridin-9-ylhydrazinecarbonyl)heptyl]benzamide] | 8.49 | – | – | – | –
2 | COc1cc(C(=O)NCCCCCCCCC(=O)NNc2c3c(nc4ccccc24)CCCC3)cc(OC)c1OC [3,4,5-Trimethoxy-N-(9-oxo-9-(2-(1,2,3,4-tetrahydroacridin-9-yl)hydrazino)nonyl)-benzamide] | – | 8.22 | 8.29 | 8.86 | 8.56
